# Data taken from patent publication US20070135514A1, “Methods for the identification of agents for the treatment of seizures, neurological diseases, endocrinopathies and hormonal diseases” (priority 2002, published 2007).
# Like-named read-outs stand apart in the source and are kept apart here.
# Assays:
# [1] = target: T1, levetiracetam binding site (LBS) (Rattus norvegicus, UniProt Q02563); details: cited from earlier work
# T1 construct: host or cells: crude rat brain membranes (Noyer et al. 1995; Gillard et al. 2003)
# T1 sequence (Q02563 whole entry): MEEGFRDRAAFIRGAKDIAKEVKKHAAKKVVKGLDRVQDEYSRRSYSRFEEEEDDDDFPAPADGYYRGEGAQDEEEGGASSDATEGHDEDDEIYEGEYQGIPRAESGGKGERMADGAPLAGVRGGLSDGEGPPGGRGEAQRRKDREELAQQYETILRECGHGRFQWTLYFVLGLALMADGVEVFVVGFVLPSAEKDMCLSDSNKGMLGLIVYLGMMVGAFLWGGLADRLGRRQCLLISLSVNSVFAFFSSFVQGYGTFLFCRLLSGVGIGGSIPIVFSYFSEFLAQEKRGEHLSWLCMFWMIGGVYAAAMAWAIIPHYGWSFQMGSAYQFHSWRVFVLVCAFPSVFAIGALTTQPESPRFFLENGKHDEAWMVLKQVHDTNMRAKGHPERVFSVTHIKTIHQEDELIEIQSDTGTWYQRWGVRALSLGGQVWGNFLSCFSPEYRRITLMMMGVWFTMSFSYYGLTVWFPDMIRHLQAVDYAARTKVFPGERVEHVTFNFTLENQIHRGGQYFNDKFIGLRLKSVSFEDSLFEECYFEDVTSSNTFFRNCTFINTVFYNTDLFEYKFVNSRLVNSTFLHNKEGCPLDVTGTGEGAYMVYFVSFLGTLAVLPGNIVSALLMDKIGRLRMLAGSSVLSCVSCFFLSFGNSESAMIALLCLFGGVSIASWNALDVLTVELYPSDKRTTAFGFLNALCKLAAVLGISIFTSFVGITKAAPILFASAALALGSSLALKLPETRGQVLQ
# hSV2A = target: T2, hSV2A (Homo sapiens, UniProt Q7L0J3); experiment: [3H]ucb 30889 binding to hSV2A expressed in COS-7 cells; details: for competition with [3H]ucb 30889 for binding to SV2A: concentrations up to 100 μM
# T2 construct: expressed in transfected cells; host or cells: COS-7 cells, transient transfection (pDEST 12.2 Gateway vector, CMV promoter)
# T2 sequence (Q7L0J3 whole entry): as the sequence (Q02563 whole entry) above, with E53D, A62S, A71T, D144E, T154A, S440G, A482S, V572I, L634M counted along it
# audiogenic seizures = details: in vivo; cited from earlier work
# [2] = tested on: refractory partial seizures; details: adjunctive therapy; cited from earlier work
# [3] = tested on: LBS in peripheral tissues; experiment: [3H]ucb 30889 specific binding in peripheral tissues; details: 150 μg protein/assay, 1.3 nM radioligand; detection limit Bmax 200 fmol/mg protein
# Experimental: (§1) Binding experiments were conducted on crude rat brain membranes at 4° C. as described in Noyer et al. (Euro. J. Pharmacol. 286:137-146 (1995)). Incubation time for equilibrium studies was 120 min. For kinetic and competition studies, [^3H]ucb 30889 (30 Ci/mmol) was used at a concentration of 1.3 nM in 0.5 ml of a Tris-HCl (pH 7.4) buffer containing 2 mM Mg^2+. Localization of the LBS in brain substructures was assessed by autoradiography on 25 μm thick slices incubated under similar conditions. Slides were then washed twice for 10 min at 4° C. in 50 mM Tris-HCl (pH 7.4) containing 0.5% BSA, dried and exposed for 3 weeks to [^3H]Hyperfilm at −20° C. Non-specific binding (NSB) was determined by the inclusion of 1 mM LEV during the incubation period.
# The limit of detection under the experimental conditions (150 μg of protein/assay and 1.3 nM of radioligand) was a Bmax of 200 fmol/mg protein.
# PC12 = experiment: [3H]ucb 30889 binding in PC12 cells; design: species or system rat
# Experimental: (§2) To identify and characterize the LBS in situ, [^3H]ucb 30889 was used to map the LBS within the brain and to study both its cellular and subcellular distribution. For rat brain autoradiography, 25 μm slices were incubated with 1.3 nM [^3H]ucb 30889 for 120 min at 4° C. in 50 mM Tris-HCl buffer (pH 7.4). Binding assays with rat brain membranes and various neuronal cell lines were performed under similar conditions. […] For photolabeling, membranes were incubated with 40 nM [^3H]ucb 30889 for 120 min at 4° C. in the same buffer, followed by irradiation with UV-light for 30 min (Fuks et al., Eur. J. Pharmacol. 478:11-19 (2003)).
# [4] = tested on: Rat cerebellar granule neurons; experiment: [3H]ucb 30889 binding in rat cerebellar granule neurons
# Experimental: as §2
# hSV2B = target: T3, hSV2B (Homo sapiens, UniProt Q7L1I2); experiment: [3H]ucb 30889 binding to hSV2B expressed in COS-7 cells; details: transient COS-7 system
# T3 construct: expressed in transfected cells; host or cells: COS-7 cells, transient expression
# T3 sequence (Q7L1I2 whole entry): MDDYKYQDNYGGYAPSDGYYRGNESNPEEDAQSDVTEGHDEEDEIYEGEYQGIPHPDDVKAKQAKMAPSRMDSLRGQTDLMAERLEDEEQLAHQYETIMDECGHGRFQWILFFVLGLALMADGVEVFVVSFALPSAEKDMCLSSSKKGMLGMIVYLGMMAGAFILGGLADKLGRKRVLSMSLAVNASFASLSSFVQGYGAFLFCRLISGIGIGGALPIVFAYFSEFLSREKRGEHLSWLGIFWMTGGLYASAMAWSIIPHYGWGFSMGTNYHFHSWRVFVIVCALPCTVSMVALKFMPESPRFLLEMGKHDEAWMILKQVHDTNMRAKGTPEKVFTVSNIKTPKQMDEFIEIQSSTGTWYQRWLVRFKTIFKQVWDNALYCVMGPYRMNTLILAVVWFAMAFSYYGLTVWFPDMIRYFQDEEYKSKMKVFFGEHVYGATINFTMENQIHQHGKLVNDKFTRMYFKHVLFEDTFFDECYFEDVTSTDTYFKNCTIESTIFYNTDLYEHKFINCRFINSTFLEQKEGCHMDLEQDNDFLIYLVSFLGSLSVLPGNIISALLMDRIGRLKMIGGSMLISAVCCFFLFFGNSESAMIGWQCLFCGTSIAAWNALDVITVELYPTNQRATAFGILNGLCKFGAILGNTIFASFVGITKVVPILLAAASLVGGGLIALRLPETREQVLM
# soluble SV2A = target: T4, soluble SV2A (Rattus norvegicus, UniProt Q02563); experiment: [3H]ucb 30889 binding to n-dodecyl-β-D-maltoside solubilized SV2A; details: soluble protein in n-dodecyl-β-D-maltoside; read-out: KD (Scatchard analysis)
# T4 construct: from tissue; host or cells: supernatant of detergent-solubilised rat brain membranes
# T4 sequence (Q02563 whole entry): as the sequence (Q02563 whole entry) above
# Experimental: The rat brain membranes were diluted in a solubilization buffer (Tris-HCl 20 mM pH 7.4, 0.25 M sucrose, protease inhibitors Complete Roche) containing n-dodecyl-β-D-maltoside 15 mM and incubated for two hours at 4° C. Subsequently, the solution was centrifuged at 4° C. for one hour at 100,000 g. The soluble SV2A was found in the supernatant as detected by western blot using anti-SV2A antibodies (FIG. 21A). The supernatants were incubated with [^3H]ucb 30889 as described. […] Thus, the binding properties of the soluble SV2A are similar to the membrane-bound native form indicative that the soluble protein maintains its native structural conformation in n-dodecyl-β-D-maltoside.
# PC12bs cells (LBS) = experiment: Intact cell [3H]ucb 30889 binding in PC12bs cells; design: species or system rat; details: identical conditions
# Experimental: In a binding experiment, specific binding was measured of [^3H]ucb 30889 to COS-7 cells that have either been transfected with SV2A-12.2, or as controls, a β-gal expressing vector, or cells that have not been transfected (FIG. 13). […] The cells were incubated at 4° C. for 2 hours, and then washed rapidly with ice-cold PBS. The cells were lysed on the plate, transferred to scintillation vials with scintillation fluid and counted for ^3H decay emission. […] In identical intact cell binding experiments using PC12bs cells, known to express the LBS, a 1.5 to 2-fold difference in CPM between the ‘hot’ and ‘hot+cold’ samples is typically seen, as compared to the 5-fold difference seen here.
# hSV2C = target: T5, hSV2C (Homo sapiens, UniProt Q496J9); experiment: [3H]ucb 30889 binding to hSV2C expressed in COS-7 cells; details: transient COS-7 system
# T5 construct: expressed in transfected cells; host or cells: COS-7 cells, transient expression
# T5 sequence (Q496J9 1-727): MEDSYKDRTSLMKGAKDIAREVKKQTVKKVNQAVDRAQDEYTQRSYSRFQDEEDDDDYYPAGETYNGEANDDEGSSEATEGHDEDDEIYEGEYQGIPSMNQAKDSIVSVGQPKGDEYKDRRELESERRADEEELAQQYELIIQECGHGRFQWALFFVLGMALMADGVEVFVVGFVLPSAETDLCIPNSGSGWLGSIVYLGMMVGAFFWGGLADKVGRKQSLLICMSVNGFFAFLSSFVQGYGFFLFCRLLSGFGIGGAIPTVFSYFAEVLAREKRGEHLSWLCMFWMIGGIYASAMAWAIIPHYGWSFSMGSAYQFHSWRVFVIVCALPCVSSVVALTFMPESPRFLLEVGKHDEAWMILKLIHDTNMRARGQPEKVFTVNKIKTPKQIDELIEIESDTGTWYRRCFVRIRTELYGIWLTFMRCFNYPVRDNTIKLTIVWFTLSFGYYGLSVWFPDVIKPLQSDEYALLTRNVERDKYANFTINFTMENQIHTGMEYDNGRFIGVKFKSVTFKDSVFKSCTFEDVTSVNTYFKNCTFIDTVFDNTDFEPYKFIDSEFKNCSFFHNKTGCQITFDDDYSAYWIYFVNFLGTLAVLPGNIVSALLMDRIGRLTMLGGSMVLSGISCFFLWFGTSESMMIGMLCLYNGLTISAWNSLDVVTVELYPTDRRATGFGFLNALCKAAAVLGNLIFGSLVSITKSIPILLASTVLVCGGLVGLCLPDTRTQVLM
# Mouse cortical neurons = experiment: [3H]ucb 30889 binding in mouse cortical neurons
# Experimental: as §2
# [5] = target: T1, levetiracetam binding site (LBS); experiment: [3H]ucb 30889 binding to crude rat brain membranes (kinetic, saturation, competition)
# Experimental: as §1
# SV2A in native membrane = target: T6, SV2A in native membrane (Rattus norvegicus, UniProt Q02563); experiment: Scatchard analysis of [3H]ucb 30889 binding, native rat brain membrane
# T6 construct: from tissue
# T6 sequence (Q02563 whole entry): as the sequence (Q02563 whole entry) above
# COS-7 = experiment: [3H]ucb 30889 binding in untransfected COS-7 cells; details: untransfected COS-7 cell line
# Experimental: as §2
# In addition, a PC12 cell line subclone, PC12a, which is low in LBS, was used to establish a pool of PC12 cells expressing hSV2A under stable antibiotic selection.
# [6] = rat brain cortex, 4° C., fast component (25 to 50% of the sites)
# [7] = rat brain cortex, 4° C., slow component
Molecule,displacement of LEV binding [1],competition with [3H]ucb 30889 for binding to SV2A (hSV2A),further results
COc1ccc(C(=O)N2CCCC2=O)cc1 [aniracetam],displaced LEV binding,–,–
CCC1(C)CC(=O)NC(=O)C1 [bemegride],competed with LEV,–,–
NC(=O)N1c2ccccc2C=Cc2ccccc21 [carbamazepine],do not displace LEV binding,"None of the AEDs at concentrations up to 100 μM, competed",–
O=C1CN=C(c2ccccc2Cl)c2cc([N+](=O)[O-])ccc2N1 [clonazepam],do not displace LEV binding,–,–
CCC1(C)CC(=O)NC1=O (stereo not drawn) [ethosuximide],competed with LEV,"None of the AEDs at concentrations up to 100 μM, competed",–
NC(=O)OCC(COC(N)=O)c1ccccc1 [felbamate],do not displace LEV binding,"None of the AEDs at concentrations up to 100 μM, competed",–
NCC1(CC(=O)O)CCCCC1 [gabapentin],do not displace LEV binding,"None of the AEDs at concentrations up to 100 μM, competed",–
"CC[C@@H](C(N)=O)N1CCCC1=O [levetiracetam, (S)-α-ethyl-2-oxo-1-pyrrolidine acetamide]",–,–,affinity for the binding site ([1]; listed as LEV): modest affinity; affinity for the binding site ([1]; listed as [^3H]LEV): only micromolar affinity; suppression of seizures in the audiogenic-susceptible mouse (audiogenic seizures): unexpected potent ability; control of refractory partial seizures in adults [2]: both effective and well tolerated
CCCC(C)C1(CC)C(=O)NC(=O)NC1=O (stereo not drawn) [pentobarbital],competed with LEV,–,–
C1CCc2nnnn2CC1 [pentylenetetrazole],competed with LEV,–,–
O=C1NC(=O)C(c2ccccc2)(c2ccccc2)N1 [phenytoin],do not displace LEV binding,"None of the AEDs at concentrations up to 100 μM, competed",–
Cc1ccsc1C(=CCCN1CCC[C@@H](C(=O)O)C1)c1sccc1C [tiagabine],do not displace LEV binding,"None of the AEDs at concentrations up to 100 μM, competed",–
"CC[C@@H](C(N)=O)N1CC(c2cccc(N=[N+]=[N-])c2)CC1=O (stereo partly drawn) [ucb 30889, (2S)-2-[4-(3-azidophenyl)-2-oxopyrrolidin-1-yl]butanamide]",–,–,"specific binding in peripheral tissues [3]: could not be detected; difference in CPM between 'hot' and 'hot+cold' samples (hSV2A; COS-7 transfected with SV2A-12.2, 1 nM radioligand ± 50 μM cold Levetiracetam, 4° C., 2 hours): 5 fold; Bmax (PC12): 1.4 pmol/mg; Kd (PC12): 0.04 µM; Bmax [4]: 0.7 pmol/mg protein; Kd [4]: 0.059 µM; binding above background (hSV2B): no binding above background; Kd (soluble SV2A): 0.082 µM; difference in CPM between 'hot' and 'hot+cold' samples (PC12bs cells (LBS)): 1.5 to 2 fold; binding above background (hSV2C): no binding above background; Bmax (Mouse cortical neurons): 1.4 pmol/mg protein; Kd (Mouse cortical neurons): 0.034 µM; half-time for association, fast component [5, 6]: 3 ± 2 min; half-time for dissociation, fast component [5, 6]: 4 ± 1 min; half-time for association, slow component [5, 7]: 47 ± 13 min; half-time for dissociation, slow component [5, 7]: 61 ± 15 min; Bmax (saturation binding) ([5]; rat brain membranes, substance used as radioligand): 5054±704 fmol/mg protein; Kd (SV2A in native membrane): 0.03 µM; binding above background (COS-7): no binding above background"
CC[C@@H](C(N)=O)N1CCCC1=O [ucb L060],–,–,"affinity to hSV2A compared with LEV (hSV2A; displacement of [3H]ucb 30889, COS-7): significantly less affinity"
CCCC(CCC)C(=O)O [valproate],do not displace LEV binding,"None of the AEDs at concentrations up to 100 μM, competed",–
C=CC(N)CCC(=O)O (stereo not drawn) [vigabatrin],do not displace LEV binding,"None of the AEDs at concentrations up to 100 μM, competed",–
NS(=O)(=O)Cc1noc2ccccc12 [zonisamide],do not displace LEV binding,"None of the AEDs at concentrations up to 100 μM, competed",–
picrotoxin,do not displace LEV binding,–,–
